Results as given in US20250154197A1, “LIPOLYTIC PEPTIDES” (FUNDACIÓ HOSPITAL UNIVERSITARI VALL D'HEBRON - INSTITUT DE …, priority 2021, published 2025).
Where no end group is shown, it is not given here. [ ]: non-standard residue; d: D form. The star is where a group is joined. Palmitoyl = CCCCCCCCCCCCCCCC(=O)*

Tests used:
3T3-L1 mouse adipocytes = experiment: Lipolytic activity: glycerol release in differentiated 3T3-L1 mouse adipocytes (12 h); assay type: cell-based; conditions: 3T3-L1 mouse adipocytes, 12 h
Procedure: JCRB9014-A) from Tebu-Bio (Tebu-bio, Barcelona, Spain). Briefly, mouse adipocytes (3T3-L1 cells) were cultured in 48 well plates as described previously (Saez-Lopez et al., 2020). Adipocytes were differentiated using cell culture reagents purchased from Tebu-Bio and following the manufacturer's instructions. At day of differentiation cells were treated in duplicates with vehicle (DMSO), Caffeine (100 μg/ml), and each of the peptides at the specified doses in Table 6a below. At the end of the experiment (12 h), supernatants were collected and glycerol content was measured using a Glycerol Assay Kit (Sigma) following manufacturer's instructions.

[1] = system: human subcutaneoous mature adipocytes; experiment: Lipolytic activity: glycerol release in human adipocytes (Lipolysis Assay kit); assay type: cell-based; conditions: human subcutaneous mature adipocytes

WDPEGVIY (H-[dW][dD][dP][dE]G[dV]I[dY]-OH; not fully specified (residue 7)) [GP3D-8 I IX, N-term NH2, C-term COOH]
Lipolysis Activity measured as Glycerol (μM) release in media (3T3-L1 mouse adipocytes; 1 μg/ml): 452 µM
Lipolysis Activity measured as Glycerol (μM) release in media (3T3-L1 mouse adipocytes; 10 μg/ml): 426 µM
Lipolysis Activity measured as Glycerol (μM) release in media (3T3-L1 mouse adipocytes; 100 μg/ml): 588 µM

LN-LD-LP-LE-G-DL-LY (NDPEG[dL]Y) [GP3DM-17, N-term NH2, C-term COOH]
Lipolysis Activity measured as Glycerol (μM) release in media ([1]; 50 μg/ml): 47.4 µM
Lipolysis Activity measured as Glycerol (μM) release in media ([1]; 100 μg/ml): 53.6 µM

TWDPEGVIY (H-[dT][dW][dD][dP][dE]G[dV][dI][dY]-OH; not fully specified) [GP3D-9 IX, N-term NH2, C-term COOH]
Lipolysis Activity measured as Glycerol (μM) release in media (3T3-L1 mouse adipocytes; 100 μg/ml): 356 µM

NDLEGLY (H-[dN][dD][dL][dE]G[dL][dY]-OH; SMILES CC(C)C[C@@H](NC(=O)CNC(=O)[C@@H](CCC(=O)O)NC(=O)[C@@H](CC(C)C)NC(=O)[C@@H](CC(=O)O)NC(=O)[C@H](N)CC(N)=O)C(=O)N[C@H](Cc1ccc(O)cc1)C(=O)O) [GP3DM-21, N-term NH2, C-term COOH]
Lipolysis Activity measured as Glycerol (μM) release in media ([1]; 25 μg/ml): 116.5 µM
Lipolysis Activity measured as Glycerol (μM) release in media ([1]; 50 μg/ml): 116.7 µM
Lipolysis Activity measured as Glycerol (μM) release in media ([1]; 100 μg/ml): 102.5 µM

TWDPGVIFY (H-[dT][dW][dD][dP]G[dV][dI][dF][dY]-OH; not fully specified) [GP3D-9 V, N-term NH2, C-term COOH]
Lipolysis Activity measured as Glycerol (μM) release in media (3T3-L1 mouse adipocytes; 100 μg/ml): 394 µM

acetyl-hexapeptide-39 (Ac-SIYVAT-NH2) [Hexa-39, reference compound]
Lipolysis Activity measured as Glycerol (μM) release in media ([1]; 100 μg/ml): 29.21 µM

WDPEGVIF (H-[dW][dD][dP][dE]G[dV]I[dF]-OH; not fully specified (residue 7)) [GP3D-8 I X, N-term NH2, C-term COOH]
Lipolysis Activity measured as Glycerol (μM) release in media (3T3-L1 mouse adipocytes; 1 μg/ml): 616 µM
Lipolysis Activity measured as Glycerol (μM) release in media (3T3-L1 mouse adipocytes; 10 μg/ml): 465 µM
Lipolysis Activity measured as Glycerol (μM) release in media (3T3-L1 mouse adipocytes; 100 μg/ml): 441 µM

Ac-NDPEGLY-NH2 (Ac-[dN][dD][dP][dE]G[dL][dY]-NH2; SMILES CC(=O)N[C@H](CC(N)=O)C(=O)N[C@H](CC(=O)O)C(=O)N1CCC[C@@H]1C(=O)N[C@H](CCC(=O)O)C(=O)NCC(=O)N[C@H](CC(C)C)C(=O)N[C@H](Cc1ccc(O)cc1)C(N)=O) [GP3DM-27, N-term CH3CONH, C-term CONH2]
Lipolysis Activity measured as Glycerol (μM) release in media ([1]; 25 μg/ml): 72.6 µM
Lipolysis Activity measured as Glycerol (μM) release in media ([1]; 50 μg/ml): 133.3 µM
Lipolysis Activity measured as Glycerol (μM) release in media ([1]; 100 μg/ml): 142.7 µM

WDPEGVF (H-[dW][dD][dP][dE]G[dV][dF]-OH; SMILES CC(C)[C@@H](NC(=O)CNC(=O)[C@@H](CCC(=O)O)NC(=O)[C@H]1CCCN1C(=O)[C@@H](CC(=O)O)NC(=O)[C@H](N)Cc1c[nH]c2ccccc12)C(=O)N[C@H](Cc1ccccc1)C(=O)O) [GP3D-7 I VIII X, N-term NH2, C-term COOH]
Lipolysis Activity measured as Glycerol (μM) release in media ([1]; 25 μg/ml): 14.57 µM
Lipolysis Activity measured as Glycerol (μM) release in media ([1]; 50 μg/ml): 36.68 µM
Lipolysis Activity measured as Glycerol (μM) release in media ([1]; 75 μg/ml): 42.95 µM
Lipolysis Activity measured as Glycerol (μM) release in media ([1]; 100 μg/ml): 46.85 µM

DN-LD-LP-LE-G-LL-LY ([dN]DPEGLY) [GP3DM-13, N-term NH2, C-term COOH]
Lipolysis Activity measured as Glycerol (μM) release in media ([1]; 50 μg/ml): 49.5 µM
Lipolysis Activity measured as Glycerol (μM) release in media ([1]; 100 μg/ml): 42.1 µM

CH3(CH2)14CONH-NDLEGLY (Palmitoyl-[dN][dD][dL][dE]G[dL][dY]-OH; SMILES CCCCCCCCCCCCCCCC(=O)N[C@H](CC(N)=O)C(=O)N[C@H](CC(=O)O)C(=O)N[C@H](CC(C)C)C(=O)N[C@H](CCC(=O)O)C(=O)NCC(=O)N[C@H](CC(C)C)C(=O)N[C@H](Cc1ccc(O)cc1)C(=O)O) [GP3DM-28, N-term CH3(CH2)14CONH, C-term COOH]
Lipolysis Activity measured as Glycerol (μM) release in media ([1]; 25 μg/ml): 50.5 µM
Lipolysis Activity measured as Glycerol (μM) release in media ([1]; 50 μg/ml): 122.6 µM
Lipolysis Activity measured as Glycerol (μM) release in media ([1]; 100 μg/ml): 106.0 µM

Ac-NDLEGLY (Ac-[dN][dD][dL][dE]G[dL][dY]-OH; SMILES CC(=O)N[C@H](CC(N)=O)C(=O)N[C@H](CC(=O)O)C(=O)N[C@H](CC(C)C)C(=O)N[C@H](CCC(=O)O)C(=O)NCC(=O)N[C@H](CC(C)C)C(=O)N[C@H](Cc1ccc(O)cc1)C(=O)O) [GP3DM-25, N-term CH3CONH, C-term COOH]
Lipolysis Activity measured as Glycerol (μM) release in media ([1]; 25 μg/ml): 134.2 µM
Lipolysis Activity measured as Glycerol (μM) release in media ([1]; 50 μg/ml): 104.4 µM
Lipolysis Activity measured as Glycerol (μM) release in media ([1]; 100 μg/ml): 121.6 µM
